Measured values reported in patent US12378287B2 (priority 2019, dated 2025).

What was measured:
[1] = target: GII.17 VLP; type: binding, norovirus; conditions: 100 μM peptide on SA chip; for Kd: GII.17 VLP 1, 0.1, 0.01, 0.001 mg/mL, KD calculated from ka and kd; for ka / kd: GII.17 VLP; for ka: association 90 sec; for kd: dissociation 60 sec
Description: (§1) The apparatus used was BLItz™ (manufactured by ForteBio). The tip of SA chip (manufactured by ForteBio) was kept in contact with purified water for 1 minute for hydration and was then kept in contact with a 1% BSA aqueous solution for 1 hour for blocking. The SA chip subjected to blocking treatment was set to the measuring unit of the BLItz™ main body, and measurement was performed according to the program shown in Table 16. The peptides of SEQ ID NOs: 103, 167, 205, 263, 283, 288, and 302 were used, and the concentration was adjusted to 100 μM. The concentrations of each of the GII.3 and GII.17 VLPs were adjusted to 1, 0.1, 0.01, and 0.001 mg/mL. The measurement data were analyzed using the attached software, and the KD value was calculated based on the Ka and Kd values.

[2] = target: GII.3 VLP; type: binding, norovirus; conditions: 100 μM peptide on SA chip; for Kd: GII.3 VLP 1, 0.1, 0.01, 0.001 mg/mL, KD calculated from ka and kd; for ka / kd: GII.3 VLP; for ka: association 90 sec; for kd: dissociation 60 sec
Description: as §1

Sequence | Kd [1] [nM] | ka [1] [M⁻¹ s⁻¹] | kd [1] [s⁻¹] | Kd [2] [nM] | ka [2] [M⁻¹ s⁻¹] | kd [2] [s⁻¹]
ANYRWSRSIK [No.263] | 19.1 | 140000 | 0.00865 | 57.5 | 851000 | 0.049
CKARSARGVS [No.288] | 12 | 620000 | 0.00747 | 6.86 | 2.09e+06 | 0.0143
FVWRRRAGLY [No.167] | 0.696 | 1.59e+06 | 0.00111 | 1.39 | 3.14e+06 | 0.00435
FVWSRRTGLY [No.205] | 109 | 169000 | 0.0184 | 31.6 | 1.03e+06 | 0.001
RFLVPVVKVM [No.103] | 8.13 | 1.38e+06 | 0.0112 | 8.07 | 2.1e+06 | 0.017
RSMSLHVSMT [No.283] | 1.39 | 994000 | 0.000138 | 0.909 | 7.86e+06 | 0.00715
VWWGRRISRF [No.302] | 28.4 | 2.28e+06 | 0.0648 |  |  | 
